From publication PMC6193938, “Characterization of a novel AICARFT inhibitor which potently elevates ZMP and has anti-tumor activity in murine models” (Scientific Reports, 2018)

Columns and labels:
[1] = molecular target: T1, LCK (Homo sapiens, UniProt P06239); assay: CEREP protein kinase assay; format: biochemical
T1 construct: purchased CEREP Panlabs (Eurofins)

[2] = test system: AMPK T172 phosphorylation in MDA-MB-231met2 tumors; assay: Western analysis of tumors; format: in vivo, mouse; conditions: 30 and 60 mg/kg BIDx22 PO
Description: (§1) The levels of total AMPKα and P70S6K are also shown. […] The levels of total AMPKα are also shown. […] Full images and the croppings used in this figure are shown in Supplemental Figures S14–S21.
(§2) Antibodies were purchased as follows: pAMPK Thr172 (Cell Signaling #2535), p-p70S6 Thr389 (Cell Signaling #9205), total p70S6 (Cell Signaling #2708), total AMPKα (Cell Signaling #2793) and Actin (Sigma #A5441). Frozen tumor samples were lysed with 500 µL ice cold lysis buffer plus Halt protease inhibitor (ThermoFisher #78430) using a Power Gen 125 tissue grinder (Fisher Scientific). Western blots were run as described in the supplemental material.
(§3) For the in vivo study with MDA-MB-231met2 (Figure 6A) 40 ug of total protein was resolved on a 10% Tris HCl Criterion XT precast gel (BioRad) at 100 V for 90 minutes. Transfer electrophoresed proteins to a 0.2 µm nitrocellulose membrane using Trans Blot Turbo System (BioRad). Block membranes for 1 hr at RT in 5% skim milk. Probe overnight 4°C for primary antibodies. Blots were washed 3-5 min in 20 mL TBS-0.1% Tween-20. Apply appropriate secondary antibody for 1-3 hours RT. Wash blots 3 x 5 min in 20 mL TBS-0.1% Tween20 and develop signal using Super Signal Western Femto kit (Thermo) on Image Reader LAS-4000 (Fuji Film Life Science).

[3] = test system: P70S6K T389 phosphorylation in MDA-MB-231met2 tumors; assay: Western analysis of tumors; format: in vivo, mouse; conditions: 30 and 60 mg/kg BIDx22 PO
Description: as §1, §2, §3

[4] = molecular target: T2, IKKe (Homo sapiens, UniProt Q14164); assay: CEREP protein kinase assay; format: biochemical
T2 construct: purchased CEREP Panlabs (Eurofins)
T2 sequence (Q14164 1-716): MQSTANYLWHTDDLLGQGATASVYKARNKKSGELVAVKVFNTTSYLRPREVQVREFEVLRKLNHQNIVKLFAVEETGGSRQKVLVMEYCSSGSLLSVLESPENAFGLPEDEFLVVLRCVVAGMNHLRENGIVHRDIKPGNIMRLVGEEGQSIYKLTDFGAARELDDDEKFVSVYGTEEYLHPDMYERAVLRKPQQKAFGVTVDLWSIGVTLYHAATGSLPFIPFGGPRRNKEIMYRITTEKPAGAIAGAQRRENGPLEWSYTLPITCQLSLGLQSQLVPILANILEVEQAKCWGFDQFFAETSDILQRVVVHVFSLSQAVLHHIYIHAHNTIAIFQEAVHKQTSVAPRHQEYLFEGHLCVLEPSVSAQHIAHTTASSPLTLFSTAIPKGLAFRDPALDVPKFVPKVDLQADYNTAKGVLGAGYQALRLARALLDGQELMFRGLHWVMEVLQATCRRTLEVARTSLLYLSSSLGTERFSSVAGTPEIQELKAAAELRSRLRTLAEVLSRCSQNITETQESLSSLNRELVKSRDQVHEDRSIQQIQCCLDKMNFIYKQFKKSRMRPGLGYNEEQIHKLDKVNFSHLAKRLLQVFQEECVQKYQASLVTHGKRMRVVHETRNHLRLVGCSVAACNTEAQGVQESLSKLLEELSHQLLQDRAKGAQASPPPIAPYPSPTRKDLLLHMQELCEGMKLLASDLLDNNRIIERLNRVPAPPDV

[5] = test system: A9 murine tumors; assay: Pharmacodynamic response of tumor metabolites, single PO dose, standard chow; format: in vivo, mouse
Source text: (§4) Figure 4 Pharmacodynamic response of ZMP (purple), AICAR (blue), […] (green), dUMP (red), AMP (aqua) & GMP (orange) metabolites in tumors following a single PO dose of LSN3213128 in athymic nude mice.

[6] = test system: MDA-MB-231met2 xenografts; assay: as above; format: in vivo, mouse
Source text: as §4

[7] = molecular target: T3, EPHA3 (Homo sapiens, UniProt P29320); assay: CEREP protein kinase assay; format: biochemical
T3 construct: purchased CEREP Panlabs (Eurofins)
T3 sequence (P29320 21-983): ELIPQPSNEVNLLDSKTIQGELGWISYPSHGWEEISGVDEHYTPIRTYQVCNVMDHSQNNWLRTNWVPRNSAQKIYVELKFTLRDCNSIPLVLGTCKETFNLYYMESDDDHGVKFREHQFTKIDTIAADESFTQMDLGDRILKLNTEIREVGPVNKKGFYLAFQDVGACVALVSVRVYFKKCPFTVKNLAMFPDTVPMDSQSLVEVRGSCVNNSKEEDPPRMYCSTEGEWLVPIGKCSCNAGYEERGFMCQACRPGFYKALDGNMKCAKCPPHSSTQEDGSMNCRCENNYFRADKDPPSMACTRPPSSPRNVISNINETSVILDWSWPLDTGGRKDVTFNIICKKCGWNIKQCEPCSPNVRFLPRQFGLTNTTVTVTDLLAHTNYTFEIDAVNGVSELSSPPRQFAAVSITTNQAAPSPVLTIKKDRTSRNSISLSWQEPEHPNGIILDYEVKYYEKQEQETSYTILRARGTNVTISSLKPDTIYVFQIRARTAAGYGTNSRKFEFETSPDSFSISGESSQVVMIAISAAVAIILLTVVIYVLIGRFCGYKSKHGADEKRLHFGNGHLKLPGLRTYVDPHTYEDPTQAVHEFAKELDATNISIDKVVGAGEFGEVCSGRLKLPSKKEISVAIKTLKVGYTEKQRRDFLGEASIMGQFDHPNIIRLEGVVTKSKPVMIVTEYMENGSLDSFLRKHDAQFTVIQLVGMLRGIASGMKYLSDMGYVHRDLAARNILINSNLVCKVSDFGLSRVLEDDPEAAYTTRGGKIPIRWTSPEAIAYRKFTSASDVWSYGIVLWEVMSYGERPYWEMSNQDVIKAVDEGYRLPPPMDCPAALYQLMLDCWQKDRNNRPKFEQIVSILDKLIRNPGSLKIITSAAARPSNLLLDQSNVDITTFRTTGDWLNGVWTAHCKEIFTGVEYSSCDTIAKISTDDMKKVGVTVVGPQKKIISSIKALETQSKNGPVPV

[8] = molecular target: T4, HER2 (Homo sapiens, UniProt P04626); assay: CEREP protein kinase assay; format: biochemical
T4 construct: purchased CEREP Panlabs (Eurofins)

[9] = MDA-MB-231met2 tumors, 4 h post treatment

T1 sequence (P06239 whole entry): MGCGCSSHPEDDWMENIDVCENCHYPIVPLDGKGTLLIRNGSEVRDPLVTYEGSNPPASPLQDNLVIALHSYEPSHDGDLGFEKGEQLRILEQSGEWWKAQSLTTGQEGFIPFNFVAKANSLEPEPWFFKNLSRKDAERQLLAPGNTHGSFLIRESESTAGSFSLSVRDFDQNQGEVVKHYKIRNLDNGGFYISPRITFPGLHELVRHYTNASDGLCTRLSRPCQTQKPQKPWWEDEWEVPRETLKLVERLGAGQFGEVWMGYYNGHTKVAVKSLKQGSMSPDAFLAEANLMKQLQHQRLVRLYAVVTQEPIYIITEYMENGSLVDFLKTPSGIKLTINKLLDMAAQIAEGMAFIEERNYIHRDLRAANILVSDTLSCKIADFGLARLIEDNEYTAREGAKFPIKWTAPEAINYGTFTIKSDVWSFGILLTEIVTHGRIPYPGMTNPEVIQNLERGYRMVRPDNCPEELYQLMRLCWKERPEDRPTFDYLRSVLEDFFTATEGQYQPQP
T4 sequence (P04626 23-1255): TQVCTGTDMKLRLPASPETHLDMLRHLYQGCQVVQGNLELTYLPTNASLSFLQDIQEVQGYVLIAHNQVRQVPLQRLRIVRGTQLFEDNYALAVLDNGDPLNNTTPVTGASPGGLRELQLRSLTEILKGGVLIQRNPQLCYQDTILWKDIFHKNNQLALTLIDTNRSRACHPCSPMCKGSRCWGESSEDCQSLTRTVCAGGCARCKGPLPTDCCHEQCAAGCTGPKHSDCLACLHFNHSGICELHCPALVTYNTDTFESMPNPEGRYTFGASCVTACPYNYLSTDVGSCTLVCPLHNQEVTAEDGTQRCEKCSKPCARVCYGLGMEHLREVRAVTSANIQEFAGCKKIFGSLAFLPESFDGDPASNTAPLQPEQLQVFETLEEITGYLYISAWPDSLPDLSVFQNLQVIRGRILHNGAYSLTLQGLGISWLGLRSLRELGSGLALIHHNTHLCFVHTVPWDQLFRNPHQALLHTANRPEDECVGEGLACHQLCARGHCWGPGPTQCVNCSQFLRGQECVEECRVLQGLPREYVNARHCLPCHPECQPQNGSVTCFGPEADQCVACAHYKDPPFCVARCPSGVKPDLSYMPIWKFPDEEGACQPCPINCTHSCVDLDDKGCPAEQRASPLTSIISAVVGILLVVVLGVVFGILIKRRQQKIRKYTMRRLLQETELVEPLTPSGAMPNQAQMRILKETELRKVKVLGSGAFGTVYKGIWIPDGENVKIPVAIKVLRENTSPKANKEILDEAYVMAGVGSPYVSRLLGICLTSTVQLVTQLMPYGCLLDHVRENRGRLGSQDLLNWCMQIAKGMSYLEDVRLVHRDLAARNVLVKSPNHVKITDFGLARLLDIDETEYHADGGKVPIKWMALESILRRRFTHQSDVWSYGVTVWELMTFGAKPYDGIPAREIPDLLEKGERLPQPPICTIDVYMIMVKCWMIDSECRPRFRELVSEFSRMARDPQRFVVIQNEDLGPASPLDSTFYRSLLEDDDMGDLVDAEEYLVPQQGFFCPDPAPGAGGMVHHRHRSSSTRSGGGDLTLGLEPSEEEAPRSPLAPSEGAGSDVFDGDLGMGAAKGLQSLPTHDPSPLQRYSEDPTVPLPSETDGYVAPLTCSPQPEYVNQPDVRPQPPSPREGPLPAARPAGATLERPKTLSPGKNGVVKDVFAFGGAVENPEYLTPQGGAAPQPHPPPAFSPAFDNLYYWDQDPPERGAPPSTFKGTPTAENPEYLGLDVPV

Compound O=c1[nH]ccc2cc(F)c(NS(=O)(=O)c3ccc(N4CC[C@@H](O)C4)s3)cc12 [LSN3213128, N-(6-Fluoro-1-oxo-1,2-dihydroisoquinolin-7-yl)-5-[(3R)-3-hydroxypyrrolidin-1-yl]thiophene-2-sulfonamide] has an inhibition at 0.2 µM ([1]; @ 0.2 uM) of -24.6%, an inhibition at 2 µM ([1]; @ 2 uM) of -4.9% and an inhibition at 20 µM ([1]; @ 20 uM) of 2.61%. The “AMPK T172 phosphorylation levels in vivo” value [2] was “remained elevated”, the “P70S6K T389 phosphorylation” value [3] was “showed no change” and the inhibition at 0.2 µM ([4]; @ 0.2 uM) was -0.0712%. For the same compound, the inhibition at 2 µM ([4]; @ 2 uM) was 8.91%, the inhibition at 20 µM ([4]; @ 20 uM) was 11.7% and the “dose after which tumor ZMP response appeared to saturate” value ([5]; nude mice on standard chow, 4 h post PO dose) was 30 mg/kg. The “tumor dUMP levels” value ([5]; standard chow, 4 h, up to 100 mg/kg) was “did not rise”, the “change in tumor ZMP” value [6, 9] was 15 fold and the “change in tumor purine levels (AMP and GMP)” value [6, 9] was “twofold”. For the same compound, the “dose at which tumor ZMP response appeared to saturate” value ([6]; MDA-MB-231met2 xenografts, nude mice on standard chow, 4 h post PO dose) was 10 mg/kg, the “tumor dUMP levels” value ([6]; MDA-MB-231met2 xenografts, standard chow, 4 h, up to 100 mg/kg) was “did not rise” and the inhibition at 0.2 µM ([7]; @ 0.2 uM) was -2.09%. It also gave an inhibition at 2 µM ([7]; @ 2 uM) of 9.04%, an inhibition at 20 µM ([7]; @ 20 uM) of 51.6% and an inhibition at 0.2 µM ([8]; @ 0.2 uM) of 6.55%. For the same compound, the inhibition at 2 µM ([8]; @ 2 uM) was 12.4% and the inhibition at 20 µM ([8]; @ 20 uM) was 9.08%.
